# PubChem BioAssay (NCI)
#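 At the GI50, growth is halved. TGI denotes the concentration required for complete inhibition of growth.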
# Legend:
# Experiment in all cases: NCI-60 cell line screen, 384-well format
# 786-0 renal = test system: 786-0 renal
# A498 renal = test system: A498 renal
# A549 NSCLC = test system: A549 NSCLC
# ACHN renal = test system: ACHN renal
# BT-549 breast = test system: BT-549 breast
# CAKI-1 renal = test system: CAKI-1 renal
# CCRF-CEM leukemia = test system: CCRF-CEM leukemia
# COLO 205 colon = test system: COLO 205 colon
# DU-145 prostate = test system: DU-145 prostate
# EKVX NSCLC = test system: EKVX NSCLC
# HCC-2998 colon = test system: HCC-2998 colon
# HCT-116 colon = test system: HCT-116 colon
# HCT-15 colon = test system: HCT-15 colon
# HOP-62 NSCLC = test system: HOP-62 NSCLC
# HOP-92 NSCLC = test system: HOP-92 NSCLC
# HS 578T breast = test system: HS 578T breast
# HT29 colon = test system: HT29 colon
# IGROV1 ovarian = test system: IGROV1 ovarian
# K-562 leukemia = test system: K-562 leukemia
# KM12 colon = test system: KM12 colon
# LOX IMVI melanoma = test system: LOX IMVI melanoma
# M14 melanoma = test system: M14 melanoma
# MALME-3M melanoma = test system: MALME-3M melanoma
# MCF7 breast = test system: MCF7 breast
# MDA-MB-231 breast = test system: MDA-MB-231 breast
# MDA-MB-435 melanoma = test system: MDA-MB-435 melanoma
# MDA-MB-468 breast = test system: MDA-MB-468 breast
# MOLT-4 leukemia = test system: MOLT-4 leukemia
# NCI-H226 lung = test system: NCI-H226 lung
# NCI-H23 lung = test system: NCI-H23 lung
# NCI-H322M lung = test system: NCI-H322M lung
# NCI-H460 NSCLC = test system: NCI-H460 NSCLC
# NCI-H522 lung = test system: NCI-H522 lung
# NCI/ADR-RES ovarian = test system: NCI/ADR-RES ovarian
# OVCAR-3 ovarian = test system: OVCAR-3 ovarian
# OVCAR-4 ovarian = test system: OVCAR-4 ovarian
# OVCAR-8 ovarian = test system: OVCAR-8 ovarian
# RPMI-8226 leukemia = test system: RPMI-8226 leukemia
# RXF 393 renal = test system: RXF 393 renal
# SF-268 CNS = test system: SF-268 CNS
# SF-295 CNS = test system: SF-295 CNS
# SF-539 CNS = test system: SF-539 CNS
# SK-MEL-28 melanoma = test system: SK-MEL-28 melanoma
# SK-MEL-5 melanoma = test system: SK-MEL-5 melanoma
# SK-OV-3 ovarian = test system: SK-OV-3 ovarian
# SN12C renal = test system: SN12C renal
# SNB-19 CNS = test system: SNB-19 CNS
# SNB-75 CNS = test system: SNB-75 CNS
# SR leukemia = test system: SR leukemia
# SW-620 colon = test system: SW-620 colon
# T-47D breast = test system: T-47D breast
# TK-10 renal = test system: TK-10 renal
# U251 glioblastoma = test system: U251 glioblastoma
# UACC-257 melanoma = test system: UACC-257 melanoma
# UACC-62 melanoma = test system: UACC-62 melanoma
# UO-31 renal = test system: UO-31 renal
smiles,measurement,setting,value
CCCCS(=O)c1sc2nc(-c3cccs3)cc(-c3ccccc3)c2c1N (configuration not stated),GI50,786-0 renal,27.9 µM
same,TGI,786-0 renal,> 100 µM
same,GI50,A498 renal,21.2 µM
same,TGI,A498 renal,79.2 µM
same,GI50,A549 NSCLC,12.5 µM
same,TGI,A549 NSCLC,> 100 µM
same,GI50,ACHN renal,31.7 µM
same,TGI,ACHN renal,> 100 µM
same,GI50,BT-549 breast,16.5 µM
same,TGI,BT-549 breast,45.6 µM
same,GI50,CAKI-1 renal,31.9 µM
same,TGI,CAKI-1 renal,> 100 µM
same,GI50,CCRF-CEM leukemia,11.4 µM
same,TGI,CCRF-CEM leukemia,28.3 µM
same,GI50,COLO 205 colon,34.4 µM
same,TGI,COLO 205 colon,> 100 µM
same,GI50,DU-145 prostate,28.7 µM
same,TGI,DU-145 prostate,> 100 µM
same,GI50,EKVX NSCLC,27.8 µM
same,TGI,EKVX NSCLC,> 100 µM
same,GI50,HCC-2998 colon,27.2 µM
same,TGI,HCC-2998 colon,63.3 µM
same,GI50,HCT-116 colon,26 µM
same,TGI,HCT-116 colon,91 µM
same,GI50,HCT-15 colon,19.1 µM
same,TGI,HCT-15 colon,> 100 µM
same,GI50,HOP-62 NSCLC,29.9 µM
same,TGI,HOP-62 NSCLC,93.8 µM
same,GI50,HOP-92 NSCLC,26.4 µM
same,TGI,HOP-92 NSCLC,99.2 µM
same,GI50,HS 578T breast,14.1 µM
same,TGI,HS 578T breast,76.2 µM
same,GI50,HT29 colon,26 µM
same,TGI,HT29 colon,> 100 µM
same,GI50,IGROV1 ovarian,38.6 µM
same,TGI,IGROV1 ovarian,> 100 µM
same,GI50,K-562 leukemia,8.47 µM
same,TGI,K-562 leukemia,> 100 µM
same,GI50,KM12 colon,> 100 µM
same,TGI,KM12 colon,> 100 µM
same,GI50,LOX IMVI melanoma,16.7 µM
same,TGI,LOX IMVI melanoma,38.1 µM
same,GI50,M14 melanoma,> 100 µM
same,TGI,M14 melanoma,> 100 µM
same,GI50,MALME-3M melanoma,28.8 µM
same,TGI,MALME-3M melanoma,73.2 µM
same,GI50,MCF7 breast,13.5 µM
same,TGI,MCF7 breast,90.7 µM
same,GI50,MDA-MB-231 breast,25.7 µM
same,TGI,MDA-MB-231 breast,> 100 µM
same,GI50,MDA-MB-435 melanoma,36.1 µM
same,TGI,MDA-MB-435 melanoma,> 100 µM
same,GI50,MDA-MB-468 breast,15 µM
same,TGI,MDA-MB-468 breast,42.7 µM
same,GI50,MOLT-4 leukemia,6.07 µM
same,TGI,MOLT-4 leukemia,18.1 µM
same,GI50,NCI-H226 lung,25.7 µM
same,TGI,NCI-H226 lung,74.6 µM
same,GI50,NCI-H23 lung,21.4 µM
same,TGI,NCI-H23 lung,97.9 µM
same,GI50,NCI-H322M lung,32.2 µM
same,TGI,NCI-H322M lung,> 100 µM
same,GI50,NCI-H460 NSCLC,13.7 µM
same,TGI,NCI-H460 NSCLC,32.4 µM
same,GI50,NCI-H522 lung,17 µM
same,TGI,NCI-H522 lung,90.5 µM
same,GI50,NCI/ADR-RES ovarian,14 µM
same,TGI,NCI/ADR-RES ovarian,59 µM
same,GI50,OVCAR-3 ovarian,16.7 µM
same,TGI,OVCAR-3 ovarian,43.5 µM
same,GI50,OVCAR-4 ovarian,30.4 µM
same,TGI,OVCAR-4 ovarian,> 100 µM
same,GI50,OVCAR-8 ovarian,25.2 µM
same,TGI,OVCAR-8 ovarian,> 100 µM
same,GI50,RPMI-8226 leukemia,4.38 µM
same,TGI,RPMI-8226 leukemia,14.6 µM
same,GI50,RXF 393 renal,20.4 µM
same,TGI,RXF 393 renal,95.5 µM
same,GI50,SF-268 CNS,> 100 µM
same,TGI,SF-268 CNS,> 100 µM
same,GI50,SF-295 CNS,19.6 µM
same,TGI,SF-295 CNS,96.5 µM
same,GI50,SF-539 CNS,23.9 µM
same,TGI,SF-539 CNS,52.2 µM
same,GI50,SK-MEL-28 melanoma,> 100 µM
same,TGI,SK-MEL-28 melanoma,> 100 µM
same,GI50,SK-MEL-5 melanoma,13.8 µM
same,TGI,SK-MEL-5 melanoma,26.8 µM
same,GI50,SK-OV-3 ovarian,31.9 µM
same,TGI,SK-OV-3 ovarian,> 100 µM
same,GI50,SN12C renal,65 µM
same,TGI,SN12C renal,> 100 µM
same,GI50,SNB-19 CNS,32.5 µM
same,TGI,SNB-19 CNS,> 100 µM
same,GI50,SNB-75 CNS,27.2 µM
same,TGI,SNB-75 CNS,> 100 µM
same,GI50,SR leukemia,3.73 µM
same,TGI,SR leukemia,8.78 µM
same,GI50,SW-620 colon,> 100 µM
same,TGI,SW-620 colon,> 100 µM
same,GI50,T-47D breast,19.2 µM
same,TGI,T-47D breast,> 100 µM
same,GI50,TK-10 renal,29.5 µM
same,TGI,TK-10 renal,> 100 µM
same,GI50,U251 glioblastoma,23.2 µM
same,TGI,U251 glioblastoma,> 100 µM
same,GI50,UACC-257 melanoma,26.9 µM
same,TGI,UACC-257 melanoma,84.1 µM
same,GI50,UACC-62 melanoma,> 100 µM
same,TGI,UACC-62 melanoma,> 100 µM
same,GI50,UO-31 renal,29.2 µM
same,TGI,UO-31 renal,> 100 µM
